The values that follow are results of earlier work, collected in patent publication US7678808B2, “5 HT receptor mediated neurogenesis” (BrainCells, Inc., priority 2006, dated 2010).

The IC50 is the concentration that inhibits the measured activity by half.

For one series, the target named is mGluR2 (Homo sapiens, UniProt Q14416). The conditions noted are these: read-out: IC50 against mGluR2; cited from earlier work.
For series [1], the system named is Group I or Group III receptors. The conditions noted are these: sub-mM concentrations; cited from earlier work.
The target of another series is mGluR3 (Homo sapiens, UniProt Q14832). The following applies: read-out: IC50 against mGluR3; cited from earlier work.

SMILES strings stand for the structures.

Chain of mGluR3 (Q14832 23-879): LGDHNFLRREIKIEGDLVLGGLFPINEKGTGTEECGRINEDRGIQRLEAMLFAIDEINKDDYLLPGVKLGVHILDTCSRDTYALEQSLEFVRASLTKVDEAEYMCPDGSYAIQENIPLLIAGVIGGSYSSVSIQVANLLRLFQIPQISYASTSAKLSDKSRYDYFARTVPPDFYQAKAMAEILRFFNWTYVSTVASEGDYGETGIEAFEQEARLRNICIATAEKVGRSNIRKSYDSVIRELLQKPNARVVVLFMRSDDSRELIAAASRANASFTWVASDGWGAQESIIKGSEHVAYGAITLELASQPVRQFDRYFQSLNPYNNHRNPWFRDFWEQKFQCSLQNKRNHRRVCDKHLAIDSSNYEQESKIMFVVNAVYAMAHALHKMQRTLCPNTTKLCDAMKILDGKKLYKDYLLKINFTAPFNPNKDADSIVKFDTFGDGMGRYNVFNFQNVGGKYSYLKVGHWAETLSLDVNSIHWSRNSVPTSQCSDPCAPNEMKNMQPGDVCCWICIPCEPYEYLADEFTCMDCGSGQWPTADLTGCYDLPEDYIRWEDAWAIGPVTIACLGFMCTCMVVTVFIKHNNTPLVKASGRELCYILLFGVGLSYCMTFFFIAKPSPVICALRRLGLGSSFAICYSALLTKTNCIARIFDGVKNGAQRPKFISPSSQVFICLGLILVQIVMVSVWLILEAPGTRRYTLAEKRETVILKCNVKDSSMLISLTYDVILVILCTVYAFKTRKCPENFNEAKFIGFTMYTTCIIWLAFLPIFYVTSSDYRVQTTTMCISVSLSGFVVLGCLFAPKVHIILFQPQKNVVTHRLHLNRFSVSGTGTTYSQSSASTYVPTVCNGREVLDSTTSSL
Chain of mGluR2 (Q14416 19-872): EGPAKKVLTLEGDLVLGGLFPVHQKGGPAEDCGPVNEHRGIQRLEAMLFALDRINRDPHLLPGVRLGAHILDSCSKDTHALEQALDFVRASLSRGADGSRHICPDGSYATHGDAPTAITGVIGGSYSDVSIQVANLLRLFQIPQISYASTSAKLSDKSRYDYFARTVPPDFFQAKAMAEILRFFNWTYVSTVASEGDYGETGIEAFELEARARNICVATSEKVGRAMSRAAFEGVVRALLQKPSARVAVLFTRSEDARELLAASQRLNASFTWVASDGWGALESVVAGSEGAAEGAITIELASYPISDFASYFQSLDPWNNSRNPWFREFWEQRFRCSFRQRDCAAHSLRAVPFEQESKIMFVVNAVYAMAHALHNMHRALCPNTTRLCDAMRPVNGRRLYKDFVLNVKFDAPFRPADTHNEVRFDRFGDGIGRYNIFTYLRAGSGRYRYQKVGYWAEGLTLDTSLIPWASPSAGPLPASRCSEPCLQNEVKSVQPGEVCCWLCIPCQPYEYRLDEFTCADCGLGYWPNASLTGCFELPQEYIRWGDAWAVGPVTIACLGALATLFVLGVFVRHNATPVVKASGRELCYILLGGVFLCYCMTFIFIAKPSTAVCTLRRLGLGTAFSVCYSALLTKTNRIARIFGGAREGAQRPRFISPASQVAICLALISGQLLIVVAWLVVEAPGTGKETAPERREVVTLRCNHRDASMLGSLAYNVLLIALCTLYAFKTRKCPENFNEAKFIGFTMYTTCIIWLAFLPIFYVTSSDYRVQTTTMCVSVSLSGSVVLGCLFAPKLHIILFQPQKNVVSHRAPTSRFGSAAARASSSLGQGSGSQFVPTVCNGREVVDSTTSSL

Turning to `NC1(C(=O)O)CCc2cc(P(=O)(O)O)ccc21` (racemic) [APICA, (RS)-1-amino-5-phosphonoindan-1-carboxylic acid], the IC50 at mGluR2 and at mGluR3 was approximately 30 µM throughout. The “activity against Group I or Group III receptors” value in series [1] is “no appreciable activity”.
